According to article PMC6265452, “An auxin controls bacterial antibiotics production” (Nucleic Acids Research, 2018):
Read-outs that look alike come from different tables or passages of the source.

Key:
AdmX [1] = target: T1, AdmX (Serratia plymuthica, UniProt P0DV33); test: ITC (also DSF shift of […]°C, in vitro transcription repression); assay type: binding
AdmX [2] = target: T1, AdmX; test: as above; assay type: binding; remark: listed apart in the source

T1 sequence (P0DV33 whole entry): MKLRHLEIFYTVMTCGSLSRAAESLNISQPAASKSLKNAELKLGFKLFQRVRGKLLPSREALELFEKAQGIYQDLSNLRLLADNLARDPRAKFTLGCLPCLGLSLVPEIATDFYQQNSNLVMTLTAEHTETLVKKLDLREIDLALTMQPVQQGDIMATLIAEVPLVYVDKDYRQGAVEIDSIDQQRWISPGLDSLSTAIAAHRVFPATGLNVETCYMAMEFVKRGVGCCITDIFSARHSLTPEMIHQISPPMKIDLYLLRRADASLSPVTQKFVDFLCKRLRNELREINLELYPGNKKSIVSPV

`O=C(O)C(=O)Cc1c[nH]c2ccccc12` [IPA, indole-3-pyruvic acid] showed a Kd (AdmX [1]) of 1.1 µM.

`O=C(O)Cc1c[nH]c2ccccc12` [IAA, indole-3-acetic acid] was tested, and the Kd (AdmX [2]) was 60.9 µM.
